Test results from publication PMC4076210, “Discovery of Novel AKT Inhibitors with Enhanced Anti-Tumor Effects in Combination with the MEK Inhibitor” (PLoS ONE, 2014).
Where two headings read alike, the source gives them in different places.

Assays:
Assay in all cases: Kinase panel
Assay type in all cases: biochemical
Flt3(D835Y)(h) = biological target: T1, Flt3(D835Y)(h) (Homo sapiens, UniProt P36888, D835Y)
T1 construct: purchased Millipore KinaseProfiler
T1 sequence (P36888 27-993 D835Y): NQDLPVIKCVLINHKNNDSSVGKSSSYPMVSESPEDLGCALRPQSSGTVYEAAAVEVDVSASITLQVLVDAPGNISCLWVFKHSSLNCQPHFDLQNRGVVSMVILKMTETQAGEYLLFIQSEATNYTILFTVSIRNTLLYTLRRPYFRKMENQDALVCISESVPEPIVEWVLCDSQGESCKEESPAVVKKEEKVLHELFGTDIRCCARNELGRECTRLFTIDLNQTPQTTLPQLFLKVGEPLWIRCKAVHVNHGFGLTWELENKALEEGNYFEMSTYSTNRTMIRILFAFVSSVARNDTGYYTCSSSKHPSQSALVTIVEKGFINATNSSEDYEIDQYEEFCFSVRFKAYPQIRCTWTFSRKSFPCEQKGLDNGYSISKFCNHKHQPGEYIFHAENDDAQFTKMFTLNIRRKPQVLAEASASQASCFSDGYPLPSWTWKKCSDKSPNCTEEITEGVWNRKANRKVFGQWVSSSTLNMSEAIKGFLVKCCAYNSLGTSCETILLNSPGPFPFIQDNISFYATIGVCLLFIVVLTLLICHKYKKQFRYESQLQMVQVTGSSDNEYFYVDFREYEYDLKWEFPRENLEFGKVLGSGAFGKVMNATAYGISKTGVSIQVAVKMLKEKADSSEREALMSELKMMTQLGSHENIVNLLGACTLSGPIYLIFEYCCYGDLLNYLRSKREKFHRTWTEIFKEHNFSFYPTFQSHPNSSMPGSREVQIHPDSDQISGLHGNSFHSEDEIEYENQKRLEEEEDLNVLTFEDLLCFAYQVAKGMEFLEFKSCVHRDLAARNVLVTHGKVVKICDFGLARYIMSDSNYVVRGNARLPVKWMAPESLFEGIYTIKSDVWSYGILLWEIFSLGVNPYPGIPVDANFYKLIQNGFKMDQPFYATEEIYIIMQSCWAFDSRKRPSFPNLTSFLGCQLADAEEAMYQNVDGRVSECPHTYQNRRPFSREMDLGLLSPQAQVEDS

MKK7β(h) = biological target: T2, MKK7β(h) (Homo sapiens, UniProt O14733)
T2 construct: purchased Millipore KinaseProfiler
T2 sequence (O14733 1-419): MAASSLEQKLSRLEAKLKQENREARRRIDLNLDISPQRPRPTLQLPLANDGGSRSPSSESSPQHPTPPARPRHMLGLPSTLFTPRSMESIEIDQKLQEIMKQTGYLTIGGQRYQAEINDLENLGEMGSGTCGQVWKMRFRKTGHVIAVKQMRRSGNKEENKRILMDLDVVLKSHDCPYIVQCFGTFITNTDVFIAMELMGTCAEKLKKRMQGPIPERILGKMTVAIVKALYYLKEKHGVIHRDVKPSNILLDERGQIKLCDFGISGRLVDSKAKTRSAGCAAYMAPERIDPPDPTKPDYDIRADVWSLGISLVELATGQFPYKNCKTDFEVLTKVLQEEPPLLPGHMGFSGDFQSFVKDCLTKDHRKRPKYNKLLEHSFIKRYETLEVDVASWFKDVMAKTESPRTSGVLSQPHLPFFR

cKit(V560G)(h) = biological target: T3, cKit(V560G)(h) (Homo sapiens, UniProt P10721, V560G)
T3 construct: purchased Millipore KinaseProfiler

IRAK1(h) = biological target: T4, IRAK1(h) (Homo sapiens, UniProt P51617)
T4 construct: purchased Millipore KinaseProfiler

ACK1(h) = biological target: T5, ACK1(h) (Homo sapiens, UniProt Q07912)
T5 construct: purchased Millipore KinaseProfiler

JNK3(h) = biological target: T6, JNK3(h) (Homo sapiens, UniProt P53779)
T6 construct: purchased Millipore KinaseProfiler

TAO1(h) = biological target: T7, TAO1(h) (Homo sapiens, UniProt Q7L7X3)
T7 construct: purchased Millipore KinaseProfiler
T7 sequence (Q7L7X3 1-1001): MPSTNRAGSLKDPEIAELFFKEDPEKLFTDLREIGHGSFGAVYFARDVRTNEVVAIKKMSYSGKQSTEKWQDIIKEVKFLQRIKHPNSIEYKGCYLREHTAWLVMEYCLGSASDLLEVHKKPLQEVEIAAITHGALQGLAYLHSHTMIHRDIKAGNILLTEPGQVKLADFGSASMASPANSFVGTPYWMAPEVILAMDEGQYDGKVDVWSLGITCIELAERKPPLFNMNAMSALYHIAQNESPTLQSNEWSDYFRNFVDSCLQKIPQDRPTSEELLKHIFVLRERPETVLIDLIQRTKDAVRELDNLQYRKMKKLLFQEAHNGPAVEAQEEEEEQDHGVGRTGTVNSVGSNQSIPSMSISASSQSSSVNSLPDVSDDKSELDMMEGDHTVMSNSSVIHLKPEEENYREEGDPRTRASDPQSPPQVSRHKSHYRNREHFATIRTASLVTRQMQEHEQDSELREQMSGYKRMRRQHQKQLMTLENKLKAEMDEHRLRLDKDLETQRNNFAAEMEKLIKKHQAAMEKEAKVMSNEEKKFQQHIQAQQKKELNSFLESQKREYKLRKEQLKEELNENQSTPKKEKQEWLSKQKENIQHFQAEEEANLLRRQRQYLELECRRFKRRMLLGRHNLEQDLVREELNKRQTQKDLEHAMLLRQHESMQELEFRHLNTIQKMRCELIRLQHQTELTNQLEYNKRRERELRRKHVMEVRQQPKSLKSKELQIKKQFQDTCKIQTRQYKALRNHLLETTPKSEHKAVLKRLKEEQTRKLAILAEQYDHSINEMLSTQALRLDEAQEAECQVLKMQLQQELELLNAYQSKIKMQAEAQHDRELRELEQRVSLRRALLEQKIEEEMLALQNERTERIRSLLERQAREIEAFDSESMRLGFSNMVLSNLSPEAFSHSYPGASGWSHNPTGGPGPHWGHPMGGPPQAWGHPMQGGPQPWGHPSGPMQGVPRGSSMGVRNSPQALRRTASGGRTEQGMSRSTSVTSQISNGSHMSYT

TrkA(h) = biological target: T8, TrkA(h) (Homo sapiens, UniProt P04629)
T8 construct: purchased Millipore KinaseProfiler

HIPK3(h) = biological target: T9, HIPK3(h) (Homo sapiens, UniProt Q9H422)
T9 construct: purchased Millipore KinaseProfiler
T9 sequence (Q9H422 whole entry): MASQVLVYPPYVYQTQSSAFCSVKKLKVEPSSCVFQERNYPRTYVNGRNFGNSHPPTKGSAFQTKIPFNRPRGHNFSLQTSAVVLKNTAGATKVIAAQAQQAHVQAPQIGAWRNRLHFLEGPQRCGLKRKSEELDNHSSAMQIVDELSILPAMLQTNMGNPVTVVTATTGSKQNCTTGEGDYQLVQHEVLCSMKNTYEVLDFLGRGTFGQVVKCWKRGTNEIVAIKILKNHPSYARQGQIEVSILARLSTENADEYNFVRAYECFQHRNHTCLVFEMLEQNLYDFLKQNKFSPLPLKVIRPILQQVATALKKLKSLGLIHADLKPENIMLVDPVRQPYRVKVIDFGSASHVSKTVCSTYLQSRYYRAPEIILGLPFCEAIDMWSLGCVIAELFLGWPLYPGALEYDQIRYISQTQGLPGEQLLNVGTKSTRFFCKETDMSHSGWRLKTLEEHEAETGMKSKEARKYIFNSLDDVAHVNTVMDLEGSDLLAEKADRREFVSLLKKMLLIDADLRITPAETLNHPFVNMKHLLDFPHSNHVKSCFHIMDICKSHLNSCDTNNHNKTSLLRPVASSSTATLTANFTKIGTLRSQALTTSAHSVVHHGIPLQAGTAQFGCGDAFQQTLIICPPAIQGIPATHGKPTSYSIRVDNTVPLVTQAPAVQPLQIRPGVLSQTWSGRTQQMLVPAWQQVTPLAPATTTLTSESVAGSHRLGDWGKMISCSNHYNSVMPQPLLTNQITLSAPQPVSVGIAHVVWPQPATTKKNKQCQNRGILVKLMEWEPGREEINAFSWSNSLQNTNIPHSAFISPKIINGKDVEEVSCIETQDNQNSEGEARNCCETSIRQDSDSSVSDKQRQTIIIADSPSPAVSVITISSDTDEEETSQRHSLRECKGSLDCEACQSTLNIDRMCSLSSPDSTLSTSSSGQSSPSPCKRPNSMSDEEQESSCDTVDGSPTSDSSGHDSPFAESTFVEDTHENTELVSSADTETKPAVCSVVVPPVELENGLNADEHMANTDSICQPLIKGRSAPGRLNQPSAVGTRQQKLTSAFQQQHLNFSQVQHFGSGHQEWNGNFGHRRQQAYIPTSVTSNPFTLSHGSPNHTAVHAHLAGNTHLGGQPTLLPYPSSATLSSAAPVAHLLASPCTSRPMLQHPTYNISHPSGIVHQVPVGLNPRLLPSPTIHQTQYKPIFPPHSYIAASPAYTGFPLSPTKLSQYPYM

T4 sequence (P51617 whole entry): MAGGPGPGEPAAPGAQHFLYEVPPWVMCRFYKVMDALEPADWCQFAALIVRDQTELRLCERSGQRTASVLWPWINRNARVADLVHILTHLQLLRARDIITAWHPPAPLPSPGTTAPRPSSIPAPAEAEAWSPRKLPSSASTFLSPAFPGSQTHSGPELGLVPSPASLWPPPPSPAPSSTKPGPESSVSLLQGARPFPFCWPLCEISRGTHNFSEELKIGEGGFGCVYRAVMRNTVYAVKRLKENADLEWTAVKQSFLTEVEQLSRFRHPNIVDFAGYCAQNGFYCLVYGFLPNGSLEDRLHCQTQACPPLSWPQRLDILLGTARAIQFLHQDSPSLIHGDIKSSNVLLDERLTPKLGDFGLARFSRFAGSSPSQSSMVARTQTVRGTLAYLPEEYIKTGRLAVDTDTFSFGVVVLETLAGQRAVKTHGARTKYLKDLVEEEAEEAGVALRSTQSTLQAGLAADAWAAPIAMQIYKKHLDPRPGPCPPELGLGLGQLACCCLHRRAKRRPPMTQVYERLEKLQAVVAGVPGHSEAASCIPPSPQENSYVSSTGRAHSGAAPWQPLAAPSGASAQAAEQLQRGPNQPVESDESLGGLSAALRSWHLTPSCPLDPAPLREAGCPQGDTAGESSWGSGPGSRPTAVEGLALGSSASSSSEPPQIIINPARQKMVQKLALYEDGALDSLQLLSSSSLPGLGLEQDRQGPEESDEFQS
T8 sequence (P04629 33-796): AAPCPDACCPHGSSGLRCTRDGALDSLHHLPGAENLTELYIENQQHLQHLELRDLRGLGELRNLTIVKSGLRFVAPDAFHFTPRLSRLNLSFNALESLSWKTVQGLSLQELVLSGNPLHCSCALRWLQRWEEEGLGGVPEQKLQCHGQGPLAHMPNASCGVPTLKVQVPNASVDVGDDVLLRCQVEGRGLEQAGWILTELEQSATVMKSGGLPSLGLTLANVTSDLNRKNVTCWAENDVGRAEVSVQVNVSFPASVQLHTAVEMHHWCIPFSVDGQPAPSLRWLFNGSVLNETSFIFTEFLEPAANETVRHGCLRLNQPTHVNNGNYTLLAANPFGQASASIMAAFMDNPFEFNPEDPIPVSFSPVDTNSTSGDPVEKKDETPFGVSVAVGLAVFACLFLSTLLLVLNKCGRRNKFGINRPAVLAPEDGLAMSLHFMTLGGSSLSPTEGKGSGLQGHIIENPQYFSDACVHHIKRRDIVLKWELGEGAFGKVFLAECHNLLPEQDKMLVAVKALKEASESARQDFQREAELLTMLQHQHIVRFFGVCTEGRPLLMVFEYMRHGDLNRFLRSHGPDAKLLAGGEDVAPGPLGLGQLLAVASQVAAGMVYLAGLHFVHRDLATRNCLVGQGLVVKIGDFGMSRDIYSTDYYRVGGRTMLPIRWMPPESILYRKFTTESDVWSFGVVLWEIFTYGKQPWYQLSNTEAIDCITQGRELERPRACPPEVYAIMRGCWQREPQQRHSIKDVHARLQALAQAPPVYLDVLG
T6 sequence (P53779 whole entry): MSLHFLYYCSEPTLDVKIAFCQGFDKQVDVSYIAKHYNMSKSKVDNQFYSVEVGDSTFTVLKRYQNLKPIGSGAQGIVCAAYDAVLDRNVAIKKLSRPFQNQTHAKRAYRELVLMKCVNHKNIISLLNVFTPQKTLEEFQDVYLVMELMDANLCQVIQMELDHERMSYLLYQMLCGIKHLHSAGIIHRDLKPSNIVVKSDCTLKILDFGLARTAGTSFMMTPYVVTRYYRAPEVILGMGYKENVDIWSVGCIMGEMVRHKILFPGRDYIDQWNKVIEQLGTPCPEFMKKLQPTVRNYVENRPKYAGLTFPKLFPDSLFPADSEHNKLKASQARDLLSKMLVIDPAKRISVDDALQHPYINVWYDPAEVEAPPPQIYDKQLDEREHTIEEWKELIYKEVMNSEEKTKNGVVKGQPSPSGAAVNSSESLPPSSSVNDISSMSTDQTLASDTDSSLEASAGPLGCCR
T5 sequence (Q07912 whole entry): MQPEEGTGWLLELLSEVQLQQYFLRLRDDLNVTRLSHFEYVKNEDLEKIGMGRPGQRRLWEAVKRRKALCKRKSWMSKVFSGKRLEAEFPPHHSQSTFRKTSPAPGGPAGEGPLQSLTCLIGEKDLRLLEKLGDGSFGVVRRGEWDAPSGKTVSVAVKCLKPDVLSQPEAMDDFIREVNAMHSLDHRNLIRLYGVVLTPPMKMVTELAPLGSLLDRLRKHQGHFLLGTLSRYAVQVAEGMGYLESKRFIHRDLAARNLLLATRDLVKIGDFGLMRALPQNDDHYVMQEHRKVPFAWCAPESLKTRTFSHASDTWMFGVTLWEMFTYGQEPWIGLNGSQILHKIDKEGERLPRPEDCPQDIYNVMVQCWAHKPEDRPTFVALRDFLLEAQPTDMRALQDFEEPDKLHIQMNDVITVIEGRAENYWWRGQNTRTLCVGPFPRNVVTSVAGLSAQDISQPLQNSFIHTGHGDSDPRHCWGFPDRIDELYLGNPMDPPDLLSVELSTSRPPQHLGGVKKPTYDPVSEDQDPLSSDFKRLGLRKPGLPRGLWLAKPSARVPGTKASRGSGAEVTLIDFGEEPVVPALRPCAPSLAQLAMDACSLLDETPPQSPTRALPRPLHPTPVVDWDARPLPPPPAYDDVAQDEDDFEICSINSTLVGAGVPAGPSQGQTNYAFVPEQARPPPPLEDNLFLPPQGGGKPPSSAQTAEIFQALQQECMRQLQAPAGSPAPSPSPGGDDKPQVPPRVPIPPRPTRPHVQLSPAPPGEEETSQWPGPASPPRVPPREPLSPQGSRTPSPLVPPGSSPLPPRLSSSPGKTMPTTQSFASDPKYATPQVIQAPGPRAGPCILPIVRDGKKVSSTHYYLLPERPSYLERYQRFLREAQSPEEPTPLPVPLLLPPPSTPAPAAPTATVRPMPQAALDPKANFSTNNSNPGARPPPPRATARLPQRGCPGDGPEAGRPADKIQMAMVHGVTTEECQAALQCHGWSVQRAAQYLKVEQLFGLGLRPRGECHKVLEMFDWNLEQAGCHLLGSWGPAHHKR

Cn1ncc(Cl)c1-c1cc(C(=O)N[C@H](CN)Cc2cccc(F)c2)sc1Cl [GSK2110183]
inhibition at 0.5 µM (Flt3(D835Y)(h)): 12%
inhibition at 10 µM (Flt3(D835Y)(h)): 71%
inhibition at 0.5 µM (MKK7β(h)): 12%
inhibition at 10 µM (MKK7β(h)): 28%
inhibition at 0.5 µM (cKit(V560G)(h)): -6%
inhibition at 10 µM (cKit(V560G)(h)): 4%
inhibition at 0.5 µM (IRAK1(h)): -5%
inhibition at 10 µM (IRAK1(h)): 3%
inhibition at 0.5 µM (ACK1(h)): 1%
inhibition at 10 µM (ACK1(h)): 8%
inhibition at 0.5 µM (JNK3(h)): -5%
inhibition at 10 µM (JNK3(h)): 6%
inhibition at 0.5 µM (TAO1(h)): 15%
inhibition at 10 µM (TAO1(h)): 49%
inhibition at 0.5 µM (TrkA(h)): 9%
inhibition at 10 µM (TrkA(h)): 69%
inhibition at 0.5 µM (HIPK3(h)): -3%
inhibition at 10 µM (HIPK3(h)): 72%

Cn1ncc(Cl)c1-c1cc(C(=O)N[C@H](CN)Cc2ccc(F)c(F)c2)oc1Cl [GSK2141795]
inhibition at 0.5 µM (Flt3(D835Y)(h); 0.5 µM, read-out: % Inhibition): 6%
inhibition at 10 µM (Flt3(D835Y)(h); 10 µM, read-out: % Inhibition): 81%
inhibition at 0.5 µM (MKK7β(h); 0.5 µM, read-out: % Inhibition): -13%
inhibition at 10 µM (MKK7β(h); 10 µM, read-out: % Inhibition): -30%
inhibition at 0.5 µM (cKit(V560G)(h); 0.5 µM, read-out: % Inhibition): -25%
inhibition at 10 µM (cKit(V560G)(h); 10 µM, read-out: % Inhibition): 16%
inhibition at 0.5 µM (IRAK1(h); 0.5 µM, read-out: % Inhibition): -19%
inhibition at 10 µM (IRAK1(h); 10 µM, read-out: % Inhibition): -4%
inhibition at 0.5 µM (ACK1(h); 0.5 µM, read-out: % Inhibition): -2%
inhibition at 10 µM (ACK1(h); 10 µM, read-out: % Inhibition): 0%
inhibition at 0.5 µM (JNK3(h); 0.5 µM, read-out: % Inhibition): -5%
inhibition at 10 µM (JNK3(h); 10 µM, read-out: % Inhibition): 3%
inhibition at 0.5 µM (TAO1(h); 0.5 µM, read-out: % Inhibition): -4%
inhibition at 10 µM (TAO1(h); 10 µM, read-out: % Inhibition): 24%
inhibition at 0.5 µM (TrkA(h); 0.5 µM, read-out: % Inhibition): -13%
inhibition at 10 µM (TrkA(h); 10 µM, read-out: % Inhibition): 63%
inhibition at 0.5 µM (HIPK3(h); 0.5 µM, read-out: % Inhibition): 7%
inhibition at 10 µM (HIPK3(h); 10 µM, read-out: % Inhibition): 63%
